The text below walks through data of patent publication US9023864B2, “Indole derivatives as CRTH2 receptor antagonists” (Merck Sharp & Dohme Corp., priority 2009, dated 2015).

The assay has as its target T1, hCRTH2 (Homo sapiens, UniProt Q9Y5Y4).
T1 construct: expressed in transfected cells; host or cells: HEK cell line expressing hCRTH2 (HEK-hCRTH2); membranes
T1 sequence (Q9Y5Y4 1-395): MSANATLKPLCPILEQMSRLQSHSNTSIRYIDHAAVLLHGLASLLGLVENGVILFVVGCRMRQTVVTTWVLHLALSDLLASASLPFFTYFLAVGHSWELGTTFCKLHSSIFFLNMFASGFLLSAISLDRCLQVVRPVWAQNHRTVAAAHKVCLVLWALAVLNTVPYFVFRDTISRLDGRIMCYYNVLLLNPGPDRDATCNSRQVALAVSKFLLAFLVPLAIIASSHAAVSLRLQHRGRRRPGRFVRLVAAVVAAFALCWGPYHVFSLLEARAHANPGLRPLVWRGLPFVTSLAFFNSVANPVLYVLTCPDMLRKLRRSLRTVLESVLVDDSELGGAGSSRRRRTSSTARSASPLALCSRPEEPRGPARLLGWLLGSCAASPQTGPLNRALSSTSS
As to the kind of experiment: Radioligand binding assay ([3H]PGD2 competition, membranes from HEK-hCRTH2 cell line). Conditions: 0.7 nM [3H]PGD2, membrane protein from HEK-hCRTH2 cell line, 60 min at room temperature; values given as ranges. Here is the method: Radioligand Binding Assay.
Radioligand binding assays were performed at room temperature in 10 mM HEPES/KOH pH 7.4, 1 mM EDTA containing 10 mM MnCl2 and 0.7 nM [^3H]PGD2 (NEN, 171 Ci mmol^−1), in a final volume of 0.2 ml. Competing ligands were diluted in dimethylsulfoxide (Me2SO) that was kept constant at 1% (v/v) of the final incubation volume. The reaction was initiated by the addition of 8-20 μg of membrane protein prepared from a HEK-hCRTH2 cell line. Total and non-specific binding were determined in the absence and the presence of 10 μM PGD2, respectively. Under these conditions, specific binding (total minus non-specific) of the radioligand to the receptor reached equilibrium within 50 min and was stable up to 180 min. The reaction was routinely conducted for 60 min at room temperature and terminated by rapid filtration through prewetted Unifilters GF/C (Packard), using a Tomtec MachIII semi-automated harvester (for HEK-hCRTH2). The filters were then washed with 4 ml of the same buffer and residual radioligand bound to the filter was determined by liquid scintillation counting following equilibration in 25 μl Ultima Gold F™ (Unifilter) (Packard). The Ki (in nM) values for representative compounds of the present invention are as follows: ≦5: Examples 3.1, 5.1, 6.1, 7.1, 8.1/8A, 9.1, 26, 27.1, 28.1, 29.1, 30, 31.1, 31.3, 32.1, 32.4, 33.1, 34.1, 36.1, 38.1, 39, 40, 41; >5 and ≦10: Examples, 4, 5.3, 29.2; >10 and ≦50: Examples 1, 10, 14, 21, 22, 25, 31.4, 32.3, 35, 36.2, 37; >50 and ≦100: Examples 2, 5.4, 6.2, 27.2, 28.2; >100: Examples 3.2, 5.2, 7.2, 8.2, 9.2, 11, 12, 13, 15, 16, 17, 18, 19, 20, 23, 24, 31.2, 32.2, 33.2, 34.2, 38.2.
Compound `O=C(O)Cc1c2n(c3ccccc13)CC(n1cc(-c3ccc(C(F)(F)F)cc3)nn1)CC2` (stereo not drawn) [Example 17, {7-[4-(4-Trifluoromethyl-phenyl)-[1,2,3]triazol-1-yl]-6,7,8,9-tetrahydropyrido[1,2-α]indol-10-yl}acetic acid] registered a Ki of more than 100 nM.

As for `O=C(O)Cc1c2n(c3ccccc13)CC(n1cc(-c3cccc4ccccc34)nn1)CC2` (stereo not drawn) [Example 18, [7-(4-Naphthalen-1-yl-[1,2,3]triazol-1-yl)-6,7,8,9-tetrahydropyrido[1,2-α]indol-10-yl]-acetic acid], the Ki was more than 100 nM.

On to `CN(C)c1ccc(-c2cn(C3CCc4c(CC(=O)O)c5ccccc5n4C3)nn2)cc1` (stereo not drawn) [Example 19, {7-[4-(4-Dimethylamino-phenyl)-[1,2,3]triazol-1-yl]-6,7,8,9-tetrahydropyrido[1,2-α]indol-10-yl}-acetic acid], for which the Ki was more than 100 nM.

Turning to `O=C(O)Cc1c2n(c3ccccc13)CC(n1nncc1-c1ccc(F)cc1)CC2` (stereo not drawn) [Example 20, {7-[5-(4-Fluoro-phenyl)-[1,2,3]triazol-1-yl]-6,7,8,9-tetrahydropyrido[1,2-α]indol-10-yl}-acetic acid], the Ki is more than 100 nM.

Take `O=C(O)Cc1c2n(c3ccccc13)CC(n1nncc1COc1ccccc1)CC2` (stereo not drawn) [Example 21, [7-(5-Phenoxymethyl-[1,2,3]triazol-1-yl)-6,7,8,9-tetrahydropyrido[1,2-α]indol-10-yl]-acetic acid]: the inhibition constant (Ki) is 10 to 50 nM.

On to `O=C(O)Cc1c2n(c3ccccc13)CC(n1nncc1C(O)c1ccc(Br)cc1)CC2` (stereo not drawn) [Example 22, (7-{5-[(4-Bromo-phenyl)-hydroxy-methyl]-[1,2,3]triazol-1-yl}-6,7,8,9-tetrahydropyrido[1,2-α]indol-10-yl)-acetic acid], for which the Ki lay within 10 to 50 nM.

`CC(C)(C)OC(=O)N1CCC(c2cnnn2C2CCc3c(CC(=O)O)c4ccccc4n3C2)CC1` (stereo not drawn) [Example 23, 4-[3-(10-Carboxymethyl-6,7,8,9-tetrahydropyrido[1,2-α]indol-7-yl)-3H-[1,2,3]triazol-4-yl]-piperidine-1-carboxylic acid tert-butyl ester] showed a Ki of more than 100 nM.

In turn, `O=C(O)Cc1c2n(c3ccccc13)CC(n1nncc1C1CCCCC1)CC2` (stereo not drawn) [Example 24, [7-(5-Cyclohexyl-[1,2,3]triazol-1-yl)-6,7,8,9-tetrahydropyrido[1,2-α]indol-10-yl]-acetic acid] came in with a Ki of more than 100 nM.

In turn, `O=C(O)Cc1c2n(c3ccccc13)CC(n1nncc1C1(O)c3ccccc3-c3ccccc31)CC2` (stereo not drawn) [Example 25, {7-[5-(9-Hydroxy-9H-fluoren-9-yl)-[1,2,3]triazol-1-yl]-6,7,8,9-tetrahydropyrido[1,2-α]indol-10-yl}-acetic acid] came in with a Ki of 10 to 50 nM.

In the case of `C=C(c1ccc(F)cc1)c1cnnn1C1CCc2c(CC(=O)O)c3ccccc3n2C1` (stereo not drawn) [Example 26, (7-{5-[1-(4-Fluoro-phenyl)-vinyl]-[1,2,3]triazol-1-yl}-6,7,8,9-tetrahydropyrido[1,2-α]indol-10-yl)-acetic acid], the Ki was not above 5 nM.

With `O=C(O)Cc1c2n(c3ccccc13)C[C@H](n1nncc1C(c1ccc(F)cc1)c1ccc(F)cc1)CC2` [Example 30, ((R)-7-{5-[Bis-(4-fluoro-phenyl)-methyl]-[1,2,3]triazol-1-yl}-6,7,8,9-tetrahydropyrido[1,2-α]indol-10-yl)-acetic acid], the Ki was not above 5 nM.

Take `O=C(O)Cc1c2n(c3ccccc13)CC(n1nncc1C(O)(c1ccccc1)C(F)(F)F)CC2` (stereo not drawn) [Example 35, {7-[5-(2,2,2-trifluoro-1-hydroxy-1-phenyl-ethyl)-1H-1,2,3-triazol-1-yl]-6,7,8,9-tetrahydropyrido[1,2-a]indol-10-yl}acetic acid]: the Ki fell in the range of 10 to 50 nM.

As a reminder, the Ki is a measure of affinity in units of concentration, obtained from inhibition or displacement.
